This is an account of results in article PMC3264552, “Expression in Antennae and Reproductive Organs Suggests a Dual Role of an Odorant-Binding Protein in Two Sibling Helicoverpa Species” (PLoS ONE, 2012).

Molecules are shown by their SMILES. Where two headings read alike, the source gives them in different places. A value given as a limit tells only on which side of the number the result lay.

The target in experiment [1] is T1, recombinant HarmOBP10 (Helicoverpa armigera, UniProt G9I573). Nature of the experiment: Competitive fluorescence binding assay (displacement of 1-NPN from HarmOBP10). The following applies: for activity at 6 µM / activity at 16 µM / activity at 1.6 µM: read-out: % at max (percent of fluorescence measured at the maximum concentration); for quality as ligand of OBP10, in words: authors' comment on Table 1; for activity at 1.6 µM: max conc 1.6 (titration 0.5–1.6 µM). The protocol: Emission fluorescence spectra were recorded on a Hitachi F-4500 at 25°C in a right angle configuration, with a 1 cm light path quartz cuvette and 5 nm slits for both excitation and emission. The protein was dissolved in 50 mM Tris-HCl buffer, pH 7.4, while ligands were added as 1 mM methanol solutions.
T1 sequence (G9I573 entry or part of it): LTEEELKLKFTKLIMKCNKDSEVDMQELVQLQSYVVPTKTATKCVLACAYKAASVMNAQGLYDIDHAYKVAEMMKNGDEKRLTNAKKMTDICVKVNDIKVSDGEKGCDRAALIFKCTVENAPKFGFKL
The probe was excited at 337 nm and emission spectra were recorded between 380 and 450 nm. […] Dissociation constant for 1-NPN and the stoichiometry of binding was obtained processing the data with Prism software.

The target in experiment [2] is T1, recombinant HarmOBP10. The experiment can be described thus: Fluorescence binding assay of the probe 1-NPN to recombinant HarmOBP10. On the procedure: Emission fluorescence spectra were recorded on a Hitachi F-4500 at 25°C in a right angle configuration, with a 1 cm light path quartz cuvette and 5 nm slits for both excitation and emission. […]
The probe was excited at 337 nm and emission spectra were recorded between 380 and 450 nm. […] Dissociation constant for 1-NPN and the stoichiometry of binding was obtained processing the data with Prism software. Dissociation constants of the competitors were calculated from the corresponding IC50 values (concentrations of ligands halving the initial fluorescence value of 1-NPN), using the equation: KD = [IC50]/1+[1-NPN]/K1-NPN, [1-NPN] being the free concentration of 1-NPN and K1-NPN being the dissociation constant of the complex protein/1-NPN.

Setting [3] is: max conc 6 (titration 0.5–6 µM), protein and 1-NPN both 2 µM, percent of fluorescence without competitor.
The mark [4] stands for this setting: calculated from IC50: KD = [IC50]/1+[1-NPN]/K1-NPN, read-out: KD (calculated dissociation constant).
Setting [5] is: max conc 16 (titration 2–16 µM), protein and 1-NPN both 2 µM, percent of fluorescence without competitor.
The mark [6] stands for this setting: protein and 1-NPN both 2 µM, Tris pH 7.4, unit from method text, not in table, read-out: IC50 (concentration of ligand halving the initial fluorescence value).
The mark [7] stands for this setting: protein and 1-NPN both 2 µM, percent of fluorescence without competitor.

In the case of `CCCCCCCCCCO` [1-Decanol], on recombinant HarmOBP10 [1] (setting [3]), the activity at 6 µM was determined as 63%. Still for that read-out and setting: in the case of `CCCCCCCCCCCCS` [1-Dodecanthiol] it was 62%. Regarding `C=CCCCCCCCCCC` [1-Dodecene], at recombinant HarmOBP10 [1], the IC50 amounted to 6 µM; the Kd came out at 4.7 µM; the “quality as ligand of OBP10, in words” value was “rather good ligand”; the activity at 6 µM amounted to 50%.

In the case of `CCCCCCCCCCCCCCCCO` [1-Hexadecanol], at recombinant HarmOBP10 [1] (setting [3]), the activity at 6 µM is 55%. Regarding `c1ccc(Nc2cccc3ccccc23)cc1` [1-NPN], the Kd on recombinant HarmOBP10 [2] (2 µM protein in 50 mM Tris-HCl, pH 7.4, single binding site, averages of three replicates, read-out: dissociation constant of 1-NPN) was determined as 5.7 µM. For the same molecule, at recombinant HarmOBP10 [2] (pH range from 5 to 9.4), the “effect of pH on affinity of 1-NPN” value is reported as “marked loss of affinity in acidic conditions”. `CCCCCCCCCCCCCCCCCCO` [1-Octadecanol]: the activity at 6 µM on recombinant HarmOBP10 [1] (setting [3]) is 56%. `CCCCCCCCCCCCCCO` [1-Tetradecanol]: at recombinant HarmOBP10 [1], the IC50 came out at 1.8 µM; the Kd was found to be 1.4 µM; the “quality as ligand of OBP10, in words” value is “maximum of affinity”; the activity at 6 µM was determined as 36%. In the case of `CCCCCCCCCCCCCO` [1-Tridecanol], the activity at 6 µM at recombinant HarmOBP10 [1] (setting [3]) is 85%. In the case of `CCCCCCCCCCC(C)=O` [2-Dodecanone], the Kd at recombinant HarmOBP10 [1] (setting [4]) was 13.2 µM. Also, the activity at 16 µM at recombinant HarmOBP10 [1] (setting [5]) came out at 51%. As for `Cc1ccc2ccccc2c1` [2-Methylnaphthalene], the activity at 16 µM on recombinant HarmOBP10 [1] amounted to 75%. With `CC(=O)OCCc1ccccc1` [2-Phenylethyl acetate], at recombinant HarmOBP10 [1] (setting [5]), the activity at 16 µM was 77%. `CCCCCCCCCCCC(C)=O` [2-Tridecanone]: the activity at 16 µM at recombinant HarmOBP10 [1] (setting [5]) worked out at 60%. On to `CC(=O)OCCC(C)CCCC(C)C` (stereo not shown) [3,7-Dimethyloctyl acetate], for which the activity at 16 µM at recombinant HarmOBP10 [1] (setting [5]) stood at 59%. On to `CC(C)CCCC(C)CCOC(=O)c1ccccc1` (stereo not shown) [3,7-Dimethyloctyl benzoate], for which the Kd on recombinant HarmOBP10 [1] (setting [4]) is 4.7 µM. On recombinant HarmOBP10 [1] (setting [5]), the activity at 16 µM amounted to 34%. The IC50 on recombinant HarmOBP10 [1] (setting [6]) is 6 µM. In the case of `COc1ccc(-c2ccccc2)cc1` [4-Phenylanisole], the activity at 16 µM at recombinant HarmOBP10 [1] (setting [5]) came out at 65%.

For `O=C(O)CCCc1ccccc1` [4-Phenylbutyric acid], the activity at 16 µM on recombinant HarmOBP10 [1] (setting [5]) worked out at 73%.

Take `CCCCCC/C=C\CCCCCCCCO` [(Z)-9-Hexadecen-1-ol]: the activity at 1.6 µM at recombinant HarmOBP10 [1] (setting [7]) was determined as 65%. Turning to `CCCCCC/C=C\CCCCCCCC=O` [(Z)-9-Hexadecenal], the activity at 1.6 µM at recombinant HarmOBP10 [1] (setting [7]) is 73%. Same read-out and setting: with `CCCC/C=C\CCCCCCCCCCO` [(Z)-11-Hexadecen-1-ol] the figure was 74%; with `CCCC/C=C\CCCCCCCCCC=O` [(Z)-11-Hexadecenal], 76%.

As for `CCCCOC(=O)c1ccc(C(C)(C)C)cc1` [Butyl p-tert-butylbenzoate], the Kd at recombinant HarmOBP10 [1] (setting [4]) is 10.9 µM. For the same molecule, at recombinant HarmOBP10 [1] (setting [5]), the “% at max (percent of fluorescence measured at the maximum concentration)” value was found to be 48%. Also, the IC50 on recombinant HarmOBP10 [1] (setting [6]) stood at 14 µM. Regarding `O=C(O)/C=C/c1ccccc1` [Cinnamic acid], at recombinant HarmOBP10 [1], the activity at 16 µM stood at 74%.

Take `CC(C)=CCC/C(C)=C/C=O` [Citral]: the activity at 16 µM on recombinant HarmOBP10 [1] is 66%. `CC(C)=CCCC(C)=CC#N` [Citralva]: the “% at max (percent of fluorescence measured at the maximum concentration)” value on recombinant HarmOBP10 [1] (setting [5]) stood at 60%. Consider `COc1cc(/C=C/C=O)ccc1O` [Coniferyl aldehyde], for which, at recombinant HarmOBP10 [1], the IC50 was 7.5 µM, the Kd stood at 5.8 µM and the activity at 16 µM was found to be 30%. As for `CC(C=O)Cc1ccc(C(C)C)cc1` (stereo not shown) [Cyclamen aldehyde], the “% at max (percent of fluorescence measured at the maximum concentration)” value at recombinant HarmOBP10 [1] (setting [5]) was greater than 100%. Turning to `CCCCCCCCCC=O` [Decanal], on recombinant HarmOBP10 [1] (setting [5]), the activity at 16 µM is greater than 100%.

For the molecule `CCCCCCCCCC(=O)O` [Decanoic acid], the activity at 6 µM on recombinant HarmOBP10 [1] (setting [3]) was 62%. For `CCCCCCCCCCCC=O` [Dodecanal], at recombinant HarmOBP10 [1] (setting [3]), the activity at 6 µM came to 73%.

Regarding `CCCCCCCCCCCCOC(C)=O` [Dodecyl acetate], the activity at 16 µM at recombinant HarmOBP10 [1] (setting [5]) is greater than 100%. `CCCCCCCCCC(=O)OCC` [Ethyl decanoate]: the Kd at recombinant HarmOBP10 [1] (setting [4]) is 4.3 µM. Further, the IC50 at recombinant HarmOBP10 [1] (setting [6]) is 5.5 µM. For the same molecule, on recombinant HarmOBP10 [1], the activity at 6 µM is 44%. In the case of `CCCCCCCCCCCC(=O)OCC` [Ethyl laurate], the activity at 6 µM at recombinant HarmOBP10 [1] (setting [3]) is 70%. `CCCCCCCCCCCCCC(=O)OCC` [Ethyl myristate]: the activity at 6 µM at recombinant HarmOBP10 [1] (setting [3]) worked out at 73%. Turning to `CCCCCCCCCCCCCCCC(=O)OCC` [Ethyl palmitate], the activity at 6 µM on recombinant HarmOBP10 [1] (setting [3]) is 69%. With `C=CCc1ccc(O)c(OC)c1` [Eugenol], the activity at 16 µM on recombinant HarmOBP10 [1] stood at 80%. Take `CC(C)=CCC/C(C)=C/CC/C(C)=C/CO` [Farnesol]: at recombinant HarmOBP10 [1] (setting [4]), the Kd was 5.4 µM. Moreover, the activity at 6 µM on recombinant HarmOBP10 [1] worked out at 54%. For `CC(C)=CCC/C(C)=C/CO` [Geraniol], the activity at 16 µM on recombinant HarmOBP10 [1] (setting [5]) amounted to 69%. Take `COc1cc(CC(=O)O)ccc1O` [Homovanillic acid]: the activity at 16 µM at recombinant HarmOBP10 [1] was 66%. Consider `CC(CC=O)CCCC(C)(C)O` (stereo not shown) [Hydroxycitronellal], for which the Kd at recombinant HarmOBP10 [1] (setting [4]) was 10.5 µM. Moreover, the activity at 16 µM on recombinant HarmOBP10 [1] (setting [5]) amounted to 48%. The IC50 on recombinant HarmOBP10 [1] (setting [6]) worked out at 13.5 µM. For the molecule `CC(CCCC(C)(C)O)CC(=O)O` (stereo not shown) [Hydroxycitronellic acid], the Kd at recombinant HarmOBP10 [1] (setting [4]) is 12.4 µM. The “% at max (percent of fluorescence measured at the maximum concentration)” value at recombinant HarmOBP10 [1] (setting [5]) is given as 50%. The IC50 on recombinant HarmOBP10 [1] (setting [6]) is 16 µM. `CCCCC/C=C\C/C=C\CCCCCCCC(=O)O` [Linoleic acid]: at recombinant HarmOBP10 [1] (setting [3]), the activity at 6 µM was 56%. Turning to `COC(=O)C=Cc1ccccc1` [Methyl cinnamate], the activity at 16 µM at recombinant HarmOBP10 [1] (setting [5]) is greater than 100%. Same read-out and setting: with `CCCCCCCCC=O` [Nonanal] the figure was greater than 100%. Consider `CCCCC/C(C=O)=C/c1ccccc1` [a-Amylcinnamaldehyde], for which, on recombinant HarmOBP10 [1], the “quality as ligand of OBP10, in words” value is given as “Even better ligands”. Also, at recombinant HarmOBP10 [1] (setting [4]), the Kd is 2.7 µM. Moreover, the “% at max (percent of fluorescence measured at the maximum concentration)” value on recombinant HarmOBP10 [1] (setting [5]) is 13%. Besides, on recombinant HarmOBP10 [1] (setting [6]), the IC50 turned out to be 3.5 µM. Regarding `COC(C=O)=Cc1ccccc1` [a-Methoxycinnamaldehyde], the Kd on recombinant HarmOBP10 [1] (setting [4]) is 9.7 µM. Moreover, the “% at max (percent of fluorescence measured at the maximum concentration)” value at recombinant HarmOBP10 [1] (setting [5]) turned out to be 37%. Besides, the IC50 on recombinant HarmOBP10 [1] (setting [6]) stood at 12.5 µM. For `CCCCOC(=O)c1ccccc1` [n-Butyl benzoate], the “quality as ligand of OBP10, in words” value at recombinant HarmOBP10 [1] is given as “poor ligand”. For the same molecule, at recombinant HarmOBP10 [1] (setting [5]), the activity at 16 µM turned out to be 62%. With `CCCCOC(=O)C=Cc1ccccc1` [n-Butyl cinnamate], the Kd on recombinant HarmOBP10 [1] (setting [4]) is 9.7 µM. Also, the “% at max (percent of fluorescence measured at the maximum concentration)” value on recombinant HarmOBP10 [1] (setting [5]) is listed as 42%. The IC50 at recombinant HarmOBP10 [1] (setting [6]) stood at 12.5 µM.

Regarding `CCCCCCOC(=O)c1ccccc1` [n-Hexyl benzoate], the Kd at recombinant HarmOBP10 [1] (setting [4]) is 5.8 µM. Also, the “% at max (percent of fluorescence measured at the maximum concentration)” value on recombinant HarmOBP10 [1] (setting [5]) was 35%. Also, the IC50 on recombinant HarmOBP10 [1] (setting [6]) came out at 7.5 µM.

On to `CCCCCCCCOC(=O)c1ccccc1` [n-Octyl benzoate], for which, on recombinant HarmOBP10 [1], the “quality as ligand of OBP10, in words” value was “the best”. Moreover, on recombinant HarmOBP10 [1] (setting [4]), the Kd was 3.1 µM. Further, the “% at max (percent of fluorescence measured at the maximum concentration)” value at recombinant HarmOBP10 [1] (setting [5]) is reported as 29%. Moreover, the IC50 on recombinant HarmOBP10 [1] (setting [6]) is 4 µM. Consider `CC(C)c1ccc(C=O)cc1` [p-Isopropylbenzaldehyde], for which, on recombinant HarmOBP10 [1] (setting [5]), the “% at max (percent of fluorescence measured at the maximum concentration)” value turned out to be 77%. On to `CC(C)(C)c1ccc(C(=O)c2ccccc2)cc1` [p-tert-Butylbenzophenone], for which the “quality as ligand of OBP10, in words” value at recombinant HarmOBP10 [1] was “Even better ligands”. The Kd at recombinant HarmOBP10 [1] (setting [4]) was 2.6 µM. The “% at max (percent of fluorescence measured at the maximum concentration)” value at recombinant HarmOBP10 [1] (setting [5]) stood at 13%. Further, the IC50 on recombinant HarmOBP10 [1] (setting [6]) came to 3.3 µM.
